Assays:
Format in all cases: in vitro ADME
[1] = target: T1, UGT1A9 (Homo sapiens, UniProt O60656); experiment: UGT screening, cDNA-expressed UGT1A9
T1 construct: purchased Corning Life Sciences
T1 sequence (O60656 26-530): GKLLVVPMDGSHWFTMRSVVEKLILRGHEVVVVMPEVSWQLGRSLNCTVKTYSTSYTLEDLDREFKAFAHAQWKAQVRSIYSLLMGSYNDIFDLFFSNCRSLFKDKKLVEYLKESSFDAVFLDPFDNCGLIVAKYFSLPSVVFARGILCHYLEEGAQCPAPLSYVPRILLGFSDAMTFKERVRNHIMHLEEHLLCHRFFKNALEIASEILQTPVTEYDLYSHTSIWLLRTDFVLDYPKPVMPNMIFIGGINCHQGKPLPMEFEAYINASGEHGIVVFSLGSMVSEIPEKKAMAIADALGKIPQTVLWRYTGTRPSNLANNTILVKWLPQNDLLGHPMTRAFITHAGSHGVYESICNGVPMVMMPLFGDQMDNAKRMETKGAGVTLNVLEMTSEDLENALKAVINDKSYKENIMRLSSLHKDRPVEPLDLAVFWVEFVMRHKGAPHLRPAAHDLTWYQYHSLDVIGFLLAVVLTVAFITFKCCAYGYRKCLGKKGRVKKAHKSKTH
Protocol: (§1) To screen for UGT enzymes responsible for glucuronidation of DWP16001, 100 μL of reaction mixtures containing 13 human cDNA-expressed UGT enzymes (1A1, 1A3, 1A4, 1A6, 1A7, 1A8, 1A9, 1A10, 2B4, 2B7, 2B10, 2B15, and 2B17) at 0.1 mg protein/mL, 5 mM UDPGA, 0.025 mg/mL alamethicin, and 25 μM DWP16001 or M1 in 50 mM Tris buffer (pH 7.4) were incubated at 37 °C for 30 min in triplicate. Reactions were stopped by adding 100 μL of ketoconazole (internal standard, 200 ng/mL) in acetonitrile, followed by vortex-mixing and centrifugation (15,000× g, 8 min, 4 °C). The supernatant (75 μL) was diluted with equal volume of 30% acetonitrile and aliquots (5 μL) were injected into an LC-MS/MS system.

[2] = test system: human liver microsomes; experiment: Enzyme kinetics of metabolite formation in human liver microsomes
Protocol: To calculate the enzyme kinetic parameters for the M1 and M2 formation from DWP16001, DWP16001 (final concentrations, 1–200 μM) was incubated with NADPH-generating system, pooled human liver microsomes (0.25 mg/mL), or human cDNA-expressed CYP3A4 or CYP2C19 supersomes (10 pmol) at 37 °C for 30 min in triplicate. Reactions were stopped by addition of 400 μL of ice-cold ketoconazole (200 ng/mL) in acetonitrile. Following vortex-mixing and centrifugation (15,000× g, 8 min, 4 °C), 75 μL aliquots of the supernatant were diluted with 75 µL of 30% acetonitrile; 5 μL aliquots were injected into an LC−MS/MS system.
Apparent kinetic parameters (Km, Vmax and n) for the formation of M1, M2, and M3 from DWP16001 by human liver microsomes, CYP3A4, or CYP2C19 were calculated as follows: the unweighted formation rates of M1, M2, and M3 over a range of DWP16001 concentrations were fitted to the Hill equation model [V = Vmax × S^n/(Km^n + S^n)] or the single enzyme model [V = Vmax × S/(Km + S)] using Enzyme Kinetics software (version 1.1 SPSS Inc., Chicago, IL, USA). In the above equations, V means the reaction velocity of the formation of M1, M2, and M3 at given concentration [S] of DWP16001, Vmax means the maximum reaction velocity, n means the Hill constant, and Km means the DWP16001 concentration at which the reaction velocity is 50% of Vmax.

[3] = target: T2, UGT2B7 (Homo sapiens, UniProt P16662); experiment: UGT screening, cDNA-expressed UGT2B7
T2 construct: purchased Corning Life Sciences
T2 sequence (P16662 24-529): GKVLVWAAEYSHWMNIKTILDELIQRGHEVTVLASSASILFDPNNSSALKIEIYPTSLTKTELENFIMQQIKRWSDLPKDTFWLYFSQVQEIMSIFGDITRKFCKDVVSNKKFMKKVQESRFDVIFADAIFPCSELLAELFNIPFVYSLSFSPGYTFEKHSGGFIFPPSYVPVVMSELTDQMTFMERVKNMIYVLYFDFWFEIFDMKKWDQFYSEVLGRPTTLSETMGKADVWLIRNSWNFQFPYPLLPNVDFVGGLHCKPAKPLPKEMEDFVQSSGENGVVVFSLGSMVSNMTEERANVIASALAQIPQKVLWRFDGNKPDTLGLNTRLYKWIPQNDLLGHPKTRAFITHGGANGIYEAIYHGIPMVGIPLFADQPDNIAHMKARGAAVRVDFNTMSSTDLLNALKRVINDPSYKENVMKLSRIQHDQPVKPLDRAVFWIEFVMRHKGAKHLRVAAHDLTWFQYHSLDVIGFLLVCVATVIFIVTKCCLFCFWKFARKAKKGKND
Protocol: as §1

Substrate of UGT1A9 [1]: substrate | M1 Formation Vmax ([2]; HLM): 980.3 pmol/min/mg protein | M1 Formation n (hill coefficient) ([2]; HLM): 0.9176 | M2 Formation Vmax ([2]; HLM): 82.8 pmol/min/mg protein | M2 Formation n (hill coefficient) ([2]; HLM): 0.9773 | M1 Formation Mode ([2]; HLM, kinetic model fitted): Hill | M2 Formation Mode ([2]; HLM, kinetic model fitted): Hill | M3 formation from DWP16001 in enzyme kinetic analysis ([2]; human liver microsomes): not detected | Substrate of UGT2B7 [3]: substrate
SMILES: OC[C@H]1O[C@@H](c2cc(Cc3ccc(C4CC4)cc3)c(Cl)c3c2CCO3)[C@H](O)[C@@H](O)[C@@H]1O [DWP16001, (2S,3R,4R,5S,6R)-2-(7-chloro-6-(4-cyclopropylbenzyl)-2,3-dihydrobenzofuran-4-yl)-6-(hydroxymethyl)tetrahydro-2H-pyran-3,4,5-triol]

Source: paper PMC7558535, “In Vitro Metabolism of DWP16001, a Novel Sodium-Glucose Cotransporter 2 Inhibitor, in Human and Animal Hepatocytes” (Pharmaceutics, 2020)
